The target of one data set is OCT1 (Homo sapiens, UniProt O15245). Description: Transporter substrate, OCT1. The settings on record: role: substrate. The format is in vitro ADME. As to the method:
(§1) Additionally, compound 760 was tested for its capability to act as a transporter substrate for various transporters, and was not found to be a transporter substrate for any of the tested transporters.

The target of a further data set is P-gp (Homo sapiens, UniProt P08183). The data set is described as follows: Transporter substrate, P-gp. Type of data set: in vitro ADME. Particulars: role: substrate. Here is the method: as §1
For the next data set, the system named is BCRP. The data set is described as follows: Transporter substrate, BCRP. The format is in vitro ADME. Particulars: role: substrate. As to the method:
as §1

For another data set, the system named is 98 targets. The data set is described as follows: Functional screening panel, 98 targets.
The target of the next data set is T1, muscarinic m2 receptor (Homo sapiens, UniProt P08172).
T1 construct: Eurofins DiscoverX, USA
The data set is described as follows: Functional selectivity panel, muscarinic m2 receptor. The format is biochemical. As to the method:
(§2) A broad panel of 78 recombinant targets was tested for pharmacologic activity in vitro through a variety of functional assays (Eurofins DiscoverX, USA), as part of the National Institute of Neurological Disorders and Stroke (NINDS) Preclinical Screening Platform for Pain (PSPP) program. The biological targets for the in vitro profiling have been selected based on avoiding opioid receptor stimulation and targets known to be associated with adverse events or targeted by drugs of abuse. […] For each test, a reference compound was evaluated at the target of interest as a positive control.

The next data set deals with T2, cannabinoid 1 receptor (Homo sapiens, UniProt P21554).
T2 construct: Eurofins DiscoverX, USA
Description: Functional selectivity panel, cannabinoid 1 receptor. The format is biochemical. As to the method:
as §2

Another data set has as its system MIA-OA rats. The data set is described as follows: Dynamic weight bearing in MIA-OA rats. Type of data set: in vivo, rat. Particulars: 100 mg/kg (naproxen 30 mg/kg), 6 hours post-dose. Here is the method:
Monosodium iodoacetate-induced osteoarthritis (MIA-OA): The animals were anaesthetized using an Isoflurane+O2 mixture. Then 50 μl of MIA at a concentration of 60 mg/mL was injected into the right knee joint using a 30 G needle. On study days 13 and 14 following MIA injection, the animals' dynamic weight bearing and response to von Frey filaments were measured.
Dynamic Weight Bearing (DWB): DWB study was performed using the DWB2 apparatus (Bioseb, Paris, France). The rats were placed in a transparent cage containing a matrix comprising around 2000 high-precision force sensors embedded in its floor where they were allowed to move freely. The force sensors measured the weight distribution on each of the four paws of the animal in grams. The animal was filmed from above using a high-definition camera, and the video feed was analyzed in real-time during the test using tracking software, allowing a precise analysis of the animal's posture and hind paws identification. Out of 5 minutes of animal behavior recording, a segment of 2 minutes was analyzed. Once the analysis was completed, the software provided the weight distribution of each hind paw as the main readout and the ratio between the injured and intact hind paws was then calculated.

Data set [1] in a line: Plasma protein binding, human. The format is in vitro ADME. The settings on record: read-out: PPB fu (human). As to the method: Incubation: Test compounds or the positive control warfarin were introduced into 10% plasma samples (Sourced from WuXi DMPK labs or from commercial vendors) to a concentration of 2 μM. A portion of 150 μL of the compound-containing plasma sample was added to one chamber of a 96-well equilibrium HTD dialysis plate. An equal volume of dialysis buffer was added to the corresponding chamber. A plasma sample was also taken before the incubation and designated as the T0 sample, serving for recovery calculation. The plate was incubated in a humidified 5% CO2 incubator at 37° C. for 4 hours. Each incubation was set up in triplicate.
Sample extraction and preparation: Following the incubation period, samples of 50 μL were drawn from both the plasma side and the buffer side and each was mixed with an equal volume of blank plasma. All matrix-matched samples were quenched using a stop solution containing an internal standard (IS).
Sample Analysis: The samples were subsequently analyzed by LC-MS/MS. The concentrations of the test compound in plasma and buffer samples were quantified based on the peak area ratio of analyte to the internal standard, with no requirement for a standard curve.

In a further data set the test system is rats. The data set is described as follows: Rotarod assay (PSPP). Type of data set: in vivo, rat. Particulars: up to 300 mg/kg, male and female, 1-6 hours post-dose. The text has this: Animals: 50 male and 50 female Sprague Dawley rats from Envigo (Frederick, MD) were used in the study. Male animals were received at body weights between approximately 200-215 grams, and female animals between 175-205 grams. All animals were housed 3 per cage (15.55×13.63×8.39 inches) and acclimated to the vivarium for 6-9 days prior to testing. All cages contained BedO'Cob® bedding with Nylabones® for enrichment. All rats were examined, handled, and weighed prior to initiation of the study to ensure adequate health and suitability. During the study, 12/12 light/dark cycles were maintained. The room temperature was maintained between […] and 23° C. with relative humidity maintained around 50%. Chow (LabDiet 5001, LabDiet, St. Louis, MO, USA) and water were provided ad libitum except where specified below. Testing was performed during the animal's light cycle phase (between 6 am and […]). Body weights were recorded prior to baseline assessment. Latency to fall off the rotating rod was the primary measure of performance.
Training: Each trial on the rotarod was identical, a 5 second ramp from 0-17 RPM followed by a period of constant velocity at 17 RPM for up to 40 seconds, for a total trial time of […].
Animals ran three training trials on Day 1 with a 30 minutes interval between training trials. […] The outcome measured was latency to fall off the rotating rod. […]

T1 sequence (P08172 whole entry): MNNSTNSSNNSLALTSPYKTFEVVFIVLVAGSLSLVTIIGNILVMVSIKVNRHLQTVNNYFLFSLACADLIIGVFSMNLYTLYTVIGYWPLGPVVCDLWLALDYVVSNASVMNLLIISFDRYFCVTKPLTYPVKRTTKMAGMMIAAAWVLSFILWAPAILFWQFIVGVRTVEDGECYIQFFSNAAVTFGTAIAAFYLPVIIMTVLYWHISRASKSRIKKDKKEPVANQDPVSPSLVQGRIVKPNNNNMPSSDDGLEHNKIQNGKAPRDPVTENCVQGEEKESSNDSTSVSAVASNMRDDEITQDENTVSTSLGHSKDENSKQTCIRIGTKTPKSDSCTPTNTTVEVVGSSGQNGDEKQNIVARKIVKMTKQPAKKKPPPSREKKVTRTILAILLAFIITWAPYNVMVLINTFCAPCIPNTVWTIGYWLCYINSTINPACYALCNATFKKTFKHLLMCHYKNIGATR
T2 sequence (P21554 whole entry): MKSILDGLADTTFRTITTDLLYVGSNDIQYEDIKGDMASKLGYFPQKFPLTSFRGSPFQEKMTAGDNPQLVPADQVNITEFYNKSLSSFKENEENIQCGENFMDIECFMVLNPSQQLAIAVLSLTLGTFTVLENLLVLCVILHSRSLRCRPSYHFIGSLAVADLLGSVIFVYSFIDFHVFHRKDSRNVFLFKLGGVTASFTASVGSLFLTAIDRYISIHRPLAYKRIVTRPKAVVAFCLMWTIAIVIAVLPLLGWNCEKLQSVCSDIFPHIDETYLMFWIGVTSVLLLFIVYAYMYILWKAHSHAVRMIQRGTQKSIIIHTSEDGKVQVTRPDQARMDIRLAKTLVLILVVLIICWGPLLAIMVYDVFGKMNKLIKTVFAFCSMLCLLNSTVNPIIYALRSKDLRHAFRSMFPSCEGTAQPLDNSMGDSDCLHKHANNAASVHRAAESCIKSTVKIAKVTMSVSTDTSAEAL
OCT1, sequence (O15245 whole entry): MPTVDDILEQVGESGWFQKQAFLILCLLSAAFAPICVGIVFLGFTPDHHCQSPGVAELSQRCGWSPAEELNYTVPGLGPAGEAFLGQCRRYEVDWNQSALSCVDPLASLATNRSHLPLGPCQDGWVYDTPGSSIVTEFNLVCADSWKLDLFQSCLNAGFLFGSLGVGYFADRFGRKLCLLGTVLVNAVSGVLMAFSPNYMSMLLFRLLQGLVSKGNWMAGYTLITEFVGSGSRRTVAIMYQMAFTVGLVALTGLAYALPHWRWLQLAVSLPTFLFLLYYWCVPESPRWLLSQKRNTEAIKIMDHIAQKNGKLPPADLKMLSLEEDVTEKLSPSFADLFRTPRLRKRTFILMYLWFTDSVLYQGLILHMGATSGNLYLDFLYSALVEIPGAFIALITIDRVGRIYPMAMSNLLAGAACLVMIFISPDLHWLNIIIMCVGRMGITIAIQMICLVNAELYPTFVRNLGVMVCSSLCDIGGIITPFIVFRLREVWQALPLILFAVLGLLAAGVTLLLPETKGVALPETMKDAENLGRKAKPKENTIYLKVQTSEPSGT
P-gp, sequence (P08183 whole entry): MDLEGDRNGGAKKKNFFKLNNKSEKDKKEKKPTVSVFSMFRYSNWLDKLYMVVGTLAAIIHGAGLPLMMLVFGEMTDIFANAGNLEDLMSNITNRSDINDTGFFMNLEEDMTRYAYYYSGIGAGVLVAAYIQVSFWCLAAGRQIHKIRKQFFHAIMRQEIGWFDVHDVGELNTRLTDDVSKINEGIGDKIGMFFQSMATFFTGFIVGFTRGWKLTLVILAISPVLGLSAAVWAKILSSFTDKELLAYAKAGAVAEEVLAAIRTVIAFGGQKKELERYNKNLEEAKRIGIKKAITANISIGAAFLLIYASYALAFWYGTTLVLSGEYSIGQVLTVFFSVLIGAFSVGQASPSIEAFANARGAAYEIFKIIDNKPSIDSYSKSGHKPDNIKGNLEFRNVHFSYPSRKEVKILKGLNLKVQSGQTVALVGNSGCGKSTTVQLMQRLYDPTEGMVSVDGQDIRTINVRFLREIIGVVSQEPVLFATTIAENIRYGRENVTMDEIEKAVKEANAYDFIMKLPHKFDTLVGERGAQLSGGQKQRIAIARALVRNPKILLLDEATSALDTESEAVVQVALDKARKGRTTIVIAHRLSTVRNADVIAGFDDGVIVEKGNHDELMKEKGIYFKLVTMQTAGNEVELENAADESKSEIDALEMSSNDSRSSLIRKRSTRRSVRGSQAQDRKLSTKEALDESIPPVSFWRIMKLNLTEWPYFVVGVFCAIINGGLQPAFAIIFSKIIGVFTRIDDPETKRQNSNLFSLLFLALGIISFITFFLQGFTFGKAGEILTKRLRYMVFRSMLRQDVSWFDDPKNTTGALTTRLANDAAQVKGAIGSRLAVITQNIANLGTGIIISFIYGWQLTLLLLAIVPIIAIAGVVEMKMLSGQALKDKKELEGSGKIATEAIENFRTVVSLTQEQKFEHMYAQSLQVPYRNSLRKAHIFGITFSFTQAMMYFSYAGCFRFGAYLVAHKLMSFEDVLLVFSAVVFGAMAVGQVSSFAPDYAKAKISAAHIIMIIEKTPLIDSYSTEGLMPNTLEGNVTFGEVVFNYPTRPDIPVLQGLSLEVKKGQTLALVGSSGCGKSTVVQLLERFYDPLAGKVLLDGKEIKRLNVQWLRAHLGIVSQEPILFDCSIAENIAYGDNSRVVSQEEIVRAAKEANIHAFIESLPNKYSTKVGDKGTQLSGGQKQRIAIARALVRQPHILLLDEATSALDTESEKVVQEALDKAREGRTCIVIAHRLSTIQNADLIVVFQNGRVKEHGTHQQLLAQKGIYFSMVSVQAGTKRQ

Turning to `O=C(Cc1nccc(-n2cc(Cl)c3cc(Cl)cc(Cl)c32)n1)NC1COCC1O` (stereo not drawn) [Compound 760], the OCT1 substrate result at OCT1 is on record as “not a transporter substrate”. Also, the P-gp substrate entry at P-gp is recorded as “not a transporter substrate or a poor substrate”. The BCRP substrate result in the data set with BCRP was “not a transporter substrate or a poor substrate”. The “Off-target effect profile” value in the data set with 98 targets is on record as “clean off-target effect profile”.

Consider `O=C(Cc1cncc(-n2cc(Cl)c3cc(Cl)cc(Cl)c32)c1)N[C@@H]1COC[C@H]1O` [Compound 661], for which the half-inhibitory concentration (IC50) on muscarinic m2 receptor is 5 µM; at cannabinoid 1 receptor it was 1.4 µM. The “Reversal of weight bearing changes” value with MIA-OA rats stood at 44%. In addition, the fraction unbound at 4 h, 2 µM in [1] was 0.003. The “Rotarod performance” value in the data set on rats is on record as “no effects on rotarod performance”.

(Values after US20260327211A1, “MODULATORS OF A POTASSIUM CHANNEL AND OF TRPV1 CHANNEL AND USES THEREOF” (Bsense Bio Therapeutics Ltd., priority 2023, published 2026).)
